Here are results for six compounds from article PMC8693998 (Journal of natural products, 2021).

The Ki is the equilibrium dissociation constant of an inhibitor or competing ligand from its target.

Assay [1] deals with human μ-opioid receptor (MOR). The settings on record: cited from earlier work.
The next assay addresses human μ-opioid receptor (Homo sapiens, UniProt P35372). Format: binding.
In assay [2] the test system is human μ-opioid receptor (MOR). The experiment in a line: Human μ-opioid receptor binding affinity quoted from the literature. The settings on record: fold lower affinity than found in the present study.
The target of assay [3] is human μ-opioid receptor (MOR). The settings on record: read-out: μ-opioid, Ki ± SEM; cited from earlier work.
Assay [4] relates to hot plate latency in catheterized rats. Put plainly: Rat hot plate antinociception assay. Format: in vivo, Sprague–Dawley rats.

“Also recorded” adds a separate entry of the source.

Chain of human μ-opioid receptor (P35372 whole entry): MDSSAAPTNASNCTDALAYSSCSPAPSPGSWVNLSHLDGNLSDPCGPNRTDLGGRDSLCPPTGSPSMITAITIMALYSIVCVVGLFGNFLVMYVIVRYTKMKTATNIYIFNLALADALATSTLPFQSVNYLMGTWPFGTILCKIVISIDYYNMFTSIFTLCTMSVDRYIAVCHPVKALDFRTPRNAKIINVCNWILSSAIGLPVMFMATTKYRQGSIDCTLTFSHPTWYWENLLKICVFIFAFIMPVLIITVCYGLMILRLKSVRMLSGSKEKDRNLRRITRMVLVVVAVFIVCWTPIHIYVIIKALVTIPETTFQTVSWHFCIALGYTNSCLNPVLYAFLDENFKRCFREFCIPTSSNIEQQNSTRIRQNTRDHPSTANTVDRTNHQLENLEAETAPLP

Consider `CC[C@@H]1CN2CCc3c([nH]c4cccc(OC)c34)[C@H]2C[C@@H]1/C(=C\OC)C(=O)OC` [speciociliatine (9), speciociliatine], for which the “Type of activity at the human μ-opioid receptor” value (“Type of activity” for short) in assay [1] is reported as “partial agonists”.
Consider `CC[C@@H]1CN2CC[C@]3(C(=O)Nc4ccccc43)[C@@H]2C[C@@H]1/C(=C\OC)C(=O)OC` [corynoxine B (2), corynoxine B], for which, at human μ-opioid receptor (human μ-opioid receptor, […]), the “Loss of hMOR affinity relative to corynoxine (1)” value is “about 6 times”. Further, the “μ-opioid affinity in a recent study relative to the present study” value in assay [2] was “approximately 15 fold”.
As for `CC[C@@H]1CN2CC[C@]3(C(=O)Nc4cccc(OC)c43)[C@@H]2C[C@@H]1/C(=C\OC)C(=O)OC` [mitragynine oxindole B (4), mitragynine oxindole B], on human μ-opioid receptor, the “Loss of hMOR affinity relative to corynoxine B (2)” value is listed as 16 fold.
As for `CC[C@@H]1CN2CC[C@@]3(O)C(=Nc4cccc(OC)c43)[C@@H]2C[C@@H]1/C(=C\OC)C(=O)OC` [7-hydroxymitragynine (11), 7-hydroxymitragynine, reference compound], the Ki in assay [3] is 7.2 nM. Also, the “Type of activity” value in assay [1] is given as “partial agonists”.
Turning to `CC[C@@H]1CN2CC[C@@]3(C(=O)Nc4ccccc43)[C@@H]2C[C@@H]1/C(=C\OC)C(=O)OC` [corynoxine (1), corynoxine], the “Reversal of antinociception by naltrexone” value in assay [4] (rat hot plate, 0.1 mg/kg (i.v.) naltrexone after cumulative doses, 0.1 mg/kg) was “fully reversed; also recorded: antagonized by naltrexone”. Further, the “Potency relative to morphine in hot plate assay” value in assay [4] (rats, nociceptive hot plate assay, fold more potent than morphine) worked out at 1.8 fold.
As for `CC[C@@H]1CN2CCc3c([nH]c4cccc(OC)c34)[C@@H]2C[C@@H]1/C(=C\OC)C(=O)OC` [mitragynine (6), mitragynine], the “Type of activity” value in assay [1] is “partial agonists”.
